Literature values, collected in article PMC2933614, “Quantitative in vitro and in vivo pharmacological profile of CE-178253, a potent and selective cannabinoid type 1 (CB1) Receptor Antagonist” (BMC Pharmacology, 2010).

Key:
[1] = set-up: method as in PMID 12055133; conditions: 0.5 mg/kg; 2-AG-mediated hyperphagia; cited from earlier work
CB1 receptor = tested on: CB1 receptor; set-up: method as in PMID 17327489; conditions: cited from earlier work

SMILES | Attenuation of FI [1] | Receptor occupancy required for maximal weight loss efficacy (CB1 receptor)
Cc1c(C(=O)NN2CCCCC2)nn(-c2ccc(Cl)cc2Cl)c1-c1ccc(Cl)cc1 [SR141716A] | ~ 50% | 
C[C@H](NC(=O)C(C)(C)Oc1ccc(C(F)(F)F)cn1)[C@@H](Cc1ccc(Cl)cc1)c1cccc(C#N)c1 [taranabant] |  | 60-90%
